# Legend:
# Assay type in all cases: in vivo
# Tygress tomato plants [1] = assay: Foliar nutrient concentration 2 weeks after treatment, greenhouse tomato (Examples 4-6); details: Mn 1.0 lb/acre
# Protocol: (§1) The following experiments were performed in a green house during the fall of 2008 and spring of 2009 at GCREC, Balm, University of Florida. Crop set-up, procedures and variables were as follows.
# (§2) Transplants of Tygress' tomato plants were planted in 2-gallon pots filled with commercial planting medium with nutrient concentration of Fe, Zn, Mn, Cu being negligible and insufficient for crop growth. Irrigation and non-micronutrient fertilizer were provided daily through microsprinklers at recommended rates for tomato production in Florida. No pesticides were used. Treatments were as described in Tables 4, 5 and 6 below.
# (§3) Treatments were applied at 5 WAT (weeks after transplanting) using a water volume of 200 mL/plant. A non-ionic surfactant was added. Foliar tissue analysis was performed at 3 and 7 WAT on the non-applied newest leaves. The concentrations of N, P, K, Mg, Ca, B, Zn, Mn, Fe, and Cu in the foliar tissue were determined from foliar analysis by a commercial laboratory at 2 weeks before treatment and again at 2 weeks after treatment.
# (§4) Deionized water was used for foliar applications, and other nutrients were applied as appropriate under non-limiting conditions. Marketable fruit were collected three times during the growing season, starting at 10 WAT (5 weeks after the initial treatment). Tomato fruit was graded as extra-large, large and medium. Non-marketable fruit were harvested and number and weight recorded but not sized.
# (§5) Experimental design was a randomized complete block design with 6 replications. Data were analyzed using a general linear model, and means were separated using an LSD test at the 5% significance level.
# Tygress tomato plants [2] = assay: Yields of tomato fruits, greenhouse (Examples 4-6)
# Protocol: as §1, §2, §3, §4, §5
# [3] = test system: soybean plants (Asgrow 1102); assay: Visual greenness ratings (1-5 scale) of soybean plants, open-field (Examples 11-12)
# Protocol: The following experiments were performed on soybean plants growing in open-field plots during the summer and fall of 2008 at two production fields in West Central Minnesota. […] Trial design was a randomized complete block with 4 replications. Each plot measured 10' by 30' and consisted of five 22'' rows. Although all five rows of each plot were treated, only the center three rows (25' in length) of each plot were machine harvested. The two fields selected for these studies had historical Iron Deficiency Chlorosis (IDC) issues. The two field sites were planted by farmers with elite Roundup Ready commodity type soybean varieties with IDC tolerance (Asgrow 1102, Monsanto Corp.). […] BIOX-M was applied at a rate of 1.12 kg Mn/ha. […] All V4 treatments were applied in 10 gallons per acre of water with a backpack sprayer with a hand boom designed to “band” apply product directly to the plant row. Three nozzles with ConeJet TXVS-2 tips were oriented on either side and over the top of each row. This maximized the applied product to the plant tissue itself and minimized application of product to the soil surface. […] The V6 treatments (where applicable) were applied in 20 gallons per acre of water to increase the suspension of the BIOX products.
# [4] = test system: soybean plants (Asgrow 1102); assay: ICP-MS micronutrient content of soybean trifoliates (Examples 11-12); design: Micronutrient content from ICP-MS analysis: Mn: unit not given here; details: for Micronutrient content from ICP-MS analysis: Fe: in ppm (unit assumed)
# Protocol: The following experiments were performed on soybean plants growing in open-field plots during the summer and fall of 2008 at two production fields in West Central Minnesota. […] Trial design was a randomized complete block with 4 replications. Each plot measured 10' by 30' and consisted of five 22'' rows. Although all five rows of each plot were treated, only the center three rows (25' in length) of each plot were machine harvested. The two fields selected for these studies had historical Iron Deficiency Chlorosis (IDC) issues. The two field sites were planted by farmers with elite Roundup Ready commodity type soybean varieties with IDC tolerance (Asgrow 1102, Monsanto Corp.). […] BIOX-M was applied at a rate of 1.12 kg Mn/ha. […] All V4 treatments were applied in 10 gallons per acre of water with a backpack sprayer with a hand boom designed to “band” apply product directly to the plant row. Three nozzles with ConeJet TXVS-2 tips were oriented on either side and over the top of each row. This maximized the applied product to the plant tissue itself and minimized application of product to the soil surface. […] The V6 treatments (where applicable) were applied in 20 gallons per acre of water to increase the suspension of the BIOX products. […] The harvested plants were dried, ground, and subjected to Inductively Coupled Plasma-Mass Spectrometry (ICP-MS) analysis to determine plant micronutrient content.
# [5] = test system: soybean plants (Asgrow 1102); assay: Soybean seed yield (Examples 11-12)
# Protocol: (§6) The following experiments were performed on soybean plants growing in open-field plots during the summer and fall of 2008 at two production fields in West Central Minnesota. […] Trial design was a randomized complete block with 4 replications. Each plot measured 10' by 30' and consisted of five 22'' rows. Although all five rows of each plot were treated, only the center three rows (25' in length) of each plot were machine harvested. The two fields selected for these studies had historical Iron Deficiency Chlorosis (IDC) issues. The two field sites were planted by farmers with elite Roundup Ready commodity type soybean varieties with IDC tolerance (Asgrow 1102, Monsanto Corp.). […] BIOX-M was applied at a rate of 1.12 kg Mn/ha. […] All V4 treatments were applied in 10 gallons per acre of water with a backpack sprayer with a hand boom designed to “band” apply product directly to the plant row. Three nozzles with ConeJet TXVS-2 tips were oriented on either side and over the top of each row. This maximized the applied product to the plant tissue itself and minimized application of product to the soil surface. […] The V6 treatments (where applicable) were applied in 20 gallons per acre of water to increase the suspension of the BIOX products. Soybean seed was harvested after soybean maturity was reached (3 October at […], and 17 Oct. 2008 at Foxhome) and seed yields for each experimental treatment group were determined. In addition, seed samples from each treatment were dried to 13% moisture content, then analyzed for protein and oil content.
# [6] = test system: soybean plants (Asgrow 1102); assay: Soybean seed protein and oil content (Examples 11-12); details: in %
# Protocol: as §6
molecule,measurement,setting,value
"O=S(=O)([O-])[O-].[Mn+2] [BIOX-INM, manganese sulfate, reference compound]",B concentration in tomato leaves,Tygress tomato plants [1]; 2 weeks after Mn treatment,25 ppm
same,Ca concentration in tomato leaves,Tygress tomato plants [1]; 2 weeks after Mn treatment,0.6%
same,Cu concentration in tomato leaves,Tygress tomato plants [1]; 2 weeks after Mn treatment,5 ppm
same,Fe concentration in tomato leaves,Tygress tomato plants [1]; 2 weeks after Mn treatment,117 ppm
same,K concentration in tomato leaves,Tygress tomato plants [1]; 2 weeks after Mn treatment,3.2%
same,Mg concentration in tomato leaves,Tygress tomato plants [1]; 2 weeks after Mn treatment,0.3%
same,N concentration in tomato leaves,Tygress tomato plants [1]; 2 weeks after Mn treatment,3.4%
same,P concentration in tomato leaves,Tygress tomato plants [1]; 2 weeks after Mn treatment,0.6%
same,Zn concentration in tomato leaves,Tygress tomato plants [1]; 2 weeks after Mn treatment,34 ppm
same,Foliar Mn concentration,Tygress tomato plants [1]; tomato leaves 2 weeks after Mn treatment,80.9 a ppm
same,Marketable tomato yield compared with non-treated control (in words),"Tygress tomato plants [2]; BIOX-M at 1.23 lb/acre or more, BIOX-EDM at 2.0 lb/acre, Mn-sulfate at 1.0 lb/acre",significantly higher than the non-treated control
same,Marketable yield,"Tygress tomato plants [2]; Mn 1.0 lb/acre, tomato fruits",4.0 a lb/plant
same,Mean visual greenness scores (1-5),"[3]; 3.27 kg/ha, V4, Jul. 15, 2008 Rating, Foxhome",3.0
same,Mean visual greenness scores (1-5),"[3]; 3.27 kg/ha, V4, Jul. 15, 2008 Rating, Renville",2.4
same,Mean visual greenness scores (1-5),"[3]; 3.27 kg/ha, V4, Jul. 29, 2008 Rating, Foxhome","1.5 A, B, C"
same,Mean visual greenness scores (1-5),"[3]; 3.27 kg/ha, V4, Jul. 29, 2008 Rating, Renville",1.0
same,Micronutrient content from ICP-MS analysis: Mn,"[4]; 3.27 kg/ha, V4, Foxhome",86.58
same,Micronutrient content from ICP-MS analysis: Fe,"[4]; 3.27 kg/ha, V4, Foxhome",87.35
same,Micronutrient content from ICP-MS analysis: Mn,"[4]; 3.27 kg/ha, V4, Renville",83.90
same,Micronutrient content from ICP-MS analysis: Fe,"[4]; 3.27 kg/ha, V4, Renville",101.17
same,Yield,"[5]; 3.27 kg/ha, V4, Foxhome",45.05 Bu/A
same,Yield,"[5]; 3.27 kg/ha, V4, Renville",27.13 Bu/A
same,Oil content (13% moisture),"[6]; 3.27 kg/ha, V4, Foxhome",18.32
same,Protein content (13% moisture),"[6]; 3.27 kg/ha, V4, Foxhome",32.63
same,Oil content (13% moisture),"[6]; 3.27 kg/ha, V4, Renville",19.80
same,Protein content (13% moisture),"[6]; 3.27 kg/ha, V4, Renville",32.36
"EDDHA chelated iron [BIOX-EDDI, reference compound]",Mean visual greenness scores (1-5),"[3]; 2.23 kg/ha, V4, V6, Jul. 15, 2008 Rating, Foxhome",2.1
same,Mean visual greenness scores (1-5),"[3]; 2.23 kg/ha, V4, V6, Jul. 15, 2008 Rating, Renville",2.9
same,Mean visual greenness scores (1-5),"[3]; 2.23 kg/ha, V4, V6, Jul. 29, 2008 Rating, Foxhome",1.0 C
same,Mean visual greenness scores (1-5),"[3]; 2.23 kg/ha, V4, V6, Jul. 29, 2008 Rating, Renville",1.4
same,Mean visual greenness scores (1-5),"[3]; 2.23 kg/ha, V4, Jul. 15, 2008 Rating, Foxhome",2.8
same,Mean visual greenness scores (1-5),"[3]; 2.23 kg/ha, V4, Jul. 15, 2008 Rating, Renville",2.6
same,Mean visual greenness scores (1-5),"[3]; 2.23 kg/ha, V4, Jul. 29, 2008 Rating, Foxhome",2.0 A
same,Mean visual greenness scores (1-5),"[3]; 2.23 kg/ha, V4, Jul. 29, 2008 Rating, Renville",1.3
same,"Greenness of soybean plants compared to control, statement","[3]; BIOX-EDDI applied at V4 only, Foxhome site, 29 July rating",not when applied at V4 only
same,Micronutrient content from ICP-MS analysis: Mn,"[4]; 2.23 kg/ha, V4, V6, Foxhome",66.03
same,Micronutrient content from ICP-MS analysis: Fe,"[4]; 2.23 kg/ha, V4, V6, Foxhome",86.15
same,Micronutrient content from ICP-MS analysis: Mn,"[4]; 2.23 kg/ha, V4, V6, Renville",91.09
same,Micronutrient content from ICP-MS analysis: Fe,"[4]; 2.23 kg/ha, V4, V6, Renville",99.56
same,Micronutrient content from ICP-MS analysis: Mn,"[4]; 2.23 kg/ha, V4, Foxhome",91.22
same,Micronutrient content from ICP-MS analysis: Fe,"[4]; 2.23 kg/ha, V4, Foxhome",82.37
same,Micronutrient content from ICP-MS analysis: Mn,"[4]; 2.23 kg/ha, V4, Renville",86.45
same,Micronutrient content from ICP-MS analysis: Fe,"[4]; 2.23 kg/ha, V4, Renville",96.89
same,Yield,"[5]; 2.23 kg/ha, V4, V6, Foxhome",45.28 Bu/A
same,Yield,"[5]; 2.23 kg/ha, V4, V6, Renville",24.15 Bu/A
same,Yield,"[5]; 2.23 kg/ha, V4, Foxhome",38.98 Bu/A
same,Yield,"[5]; 2.23 kg/ha, V4, Renville",27.19 Bu/A
same,Oil content (13% moisture),"[6]; 2.23 kg/ha, V4, V6, Foxhome",18.56
same,Protein content (13% moisture),"[6]; 2.23 kg/ha, V4, V6, Foxhome",32.58
same,Oil content (13% moisture),"[6]; 2.23 kg/ha, V4, V6, Renville",19.97
same,Protein content (13% moisture),"[6]; 2.23 kg/ha, V4, V6, Renville",31.97
same,Oil content (13% moisture),"[6]; 2.23 kg/ha, V4, Foxhome",18.41
same,Protein content (13% moisture),"[6]; 2.23 kg/ha, V4, Foxhome",32.56
same,Oil content (13% moisture),"[6]; 2.23 kg/ha, V4, Renville",20.22
same,Protein content (13% moisture),"[6]; 2.23 kg/ha, V4, Renville",32.14

# From US20110098177A1, “METHODS AND COMPOSITIONS OF PLANT MICRONUTRIENTS” (NOVUS INTERNATIONAL INC., priority 2006, published 2011)
